Reference: publication PMC7470779 (Acta Pharmacologica Sinica, 2019)
Each block holds one molecule with its values, some of them ahead of it.

What was measured:
human OAT3 [1] = biological target: T1, human OAT3 (Homo sapiens, UniProt Q8TCC7); experiment: Acyclovir uptake in hOAT3-HEK293 cells; type: cell-based
T1 sequence (Q8TCC7 1-542): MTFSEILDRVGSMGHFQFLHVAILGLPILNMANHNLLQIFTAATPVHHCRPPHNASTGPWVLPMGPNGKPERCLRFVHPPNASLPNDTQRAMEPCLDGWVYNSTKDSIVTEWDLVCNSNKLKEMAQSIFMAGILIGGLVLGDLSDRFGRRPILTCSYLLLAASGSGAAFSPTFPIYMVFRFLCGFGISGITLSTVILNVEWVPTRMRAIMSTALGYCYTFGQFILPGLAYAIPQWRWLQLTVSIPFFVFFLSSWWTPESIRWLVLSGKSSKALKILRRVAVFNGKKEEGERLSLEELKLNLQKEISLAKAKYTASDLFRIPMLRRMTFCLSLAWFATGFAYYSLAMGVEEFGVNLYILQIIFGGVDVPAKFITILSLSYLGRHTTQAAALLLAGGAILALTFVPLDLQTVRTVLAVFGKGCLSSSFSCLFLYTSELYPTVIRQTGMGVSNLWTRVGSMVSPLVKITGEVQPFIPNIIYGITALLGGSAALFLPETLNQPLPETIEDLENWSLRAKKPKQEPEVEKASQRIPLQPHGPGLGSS

human OAT3 [2] = biological target: T1, human OAT3; experiment: Inhibition of 6-CF uptake in hOAT3-HEK293 cells; type: cell-based
human OAT1 [3] = biological target: T2, human OAT1 (Homo sapiens, UniProt Q4U2R8); experiment: Acyclovir uptake in hOAT1-HEK293 cells; type: cell-based
T2 sequence (Q4U2R8 1-550 isoform Q4U2R8-2): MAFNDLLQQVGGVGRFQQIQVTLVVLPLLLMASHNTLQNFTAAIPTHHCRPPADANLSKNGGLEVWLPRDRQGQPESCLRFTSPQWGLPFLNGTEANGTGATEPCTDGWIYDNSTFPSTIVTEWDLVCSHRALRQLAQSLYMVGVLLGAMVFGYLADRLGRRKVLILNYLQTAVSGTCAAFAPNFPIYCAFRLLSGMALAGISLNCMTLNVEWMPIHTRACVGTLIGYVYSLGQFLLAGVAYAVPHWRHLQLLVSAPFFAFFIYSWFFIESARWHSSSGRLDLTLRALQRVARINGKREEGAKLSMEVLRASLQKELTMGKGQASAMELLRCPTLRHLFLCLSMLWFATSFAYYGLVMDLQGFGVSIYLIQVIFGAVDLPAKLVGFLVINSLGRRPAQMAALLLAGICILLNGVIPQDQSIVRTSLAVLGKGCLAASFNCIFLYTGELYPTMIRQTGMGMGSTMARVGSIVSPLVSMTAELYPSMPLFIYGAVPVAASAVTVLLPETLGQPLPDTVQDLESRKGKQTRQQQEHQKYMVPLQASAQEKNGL

human OAT1 [4] = biological target: T2, human OAT1; experiment: Inhibition of 6-CF uptake in hOAT1-HEK293 cells; type: cell-based
human transporter MRP2 [5] = biological target: T3, human transporter MRP2 (Homo sapiens, UniProt Q92887); experiment: Transcellular transport of acyclovir in MRP2-MDCK cells; type: in vitro ADME; settings: acyclovir 10 μmol/L, TER 10 μmol/L, MK571 20 μmol/L
human transporter MRP2 [6] = biological target: T3, human transporter MRP2; experiment: Accumulation of acyclovir in MRP2-MDCK cells; type: cell-based
[7] = cited from earlier work
human OAT3 [8] = biological target: T1, human OAT3; experiment: TER cellular uptake in hOAT3-HEK293 cells; type: in vitro ADME; settings: TER 20 μmol/L, 20 min, with or without probenecid 200 μmol/L
human OAT1 [9] = biological target: T2, human OAT1; experiment: TER cellular uptake in hOAT1-HEK293 cells; type: in vitro ADME; settings: TER 20 μmol/L, 20 min, with or without probenecid 200 μmol/L
in vivo = settings: Sprague-Dawley, rat, iv, 30 mg/kg, AUC0-∞
[10] = Cumulative urinary excretion of acyclovir in rats; settings: acyclovir alone 30 mg/kg iv
[11] = Sprague-Dawley, rat, plasma, intraperitoneal

effect on OAT3-mediated acyclovir transport (uptake) (human OAT3 [1]): inhibited
IC50 (human OAT3 [2]): 4.1 µM
inhibitory effect on OAT1 (6-CF uptake) (human OAT1 [4]; hOAT1-HEK293 cells, LEF 1–100 μmol/L): no significant inhibitory effect
SMILES: Cc1oncc1C(=O)Nc1ccc(C(F)(F)F)cc1 [LEF, leflunomide]
effect on OAT1-mediated acyclovir transport (uptake) (human OAT1 [3]): only inhibited OAT3-mediated acyclovir transport

ER value of acyclovir reduced to, in the presence of inhibitor (human transporter MRP2 [5]): 1.46
effect on the plasma concentration and plasma clearance of acyclovir (rats, coadministration): no effect
SMILES: CN(C)C(=O)CCSC(SCCC(=O)O)c1cccc(/C=C/c2ccc3ccc(Cl)cc3n2)c1 (centres unmarked) [MK571]

IC50 (human transporter MRP2 [6]): 4.91 µM
effect on OAT3-mediated acyclovir transport (uptake) (human OAT3 [1]): significantly inhibited
ER value of acyclovir reduced to, in the presence of inhibitor (human transporter MRP2 [5]): 1.46
mean plasma concentration of TER [11]: 25900 to 37800 ng/mL
time at which peak plasma concentration of TER was reached [11]: 2 h
IC50 (human OAT3 [2]): 0.87 µM
effect on OAT1-mediated acyclovir transport (uptake) (human OAT1 [3]): significantly inhibited
substrate of OAT3 (human OAT3 [8]): not a substrate
IC50 (human OAT1 [4]): 3.39 µM
substrate of OAT1 (human OAT1 [9]): not a substrate
SMILES: C/C(O)=C(\C#N)C(=O)Nc1ccc(C(F)(F)F)cc1 [TER, teriflunomide]
half-life of TER in the plasma [7]: approximately two weeks

AUC(0-inf) (in vivo): 30600 ± 4530 ng·h/mL
AUC(0-inf) (in vivo; rats, acyclovir 30 mg/kg iv, acyclovir alone): 25800 ± 3020 ng·h/mL
24-h cumulative urinary excretion of acyclovir (% of the dose recovered) [10]: 78.4%
SMILES: Nc1nc2c(ncn2COCCO)c(=O)[nH]1 [acyclovir]
